Twelve molecules from patent US11292767B2, “Heterocyclic inhibitors of MCT4” (Vettore, LLC, priority 2016, dated 2022) can be followed below.

Where only a bound is given, the exact number is not on record here.

Data set [1] concerns CFA-induced arthritis. Description: Adjuvant-induced arthritis model in rat: Difference of Weight Bearing test (DWB). In kind it is in vivo. The settings on record: SD rat, PO 3 days post CFA, compared to dexamethasone.
Data set [2] in a line: Metabolic stability in human liver microsomes (in vitro t1/2). In kind it is in vitro ADME. The following applies: human liver microsomes 0.5 mg/mL, 2 μM compound; for Human microsome % 60 min: % remaining at 60 min. Summed up: (§1)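 Liver microsomes (0.5 mg/mL final) were incubated with 2 μM test compound in the presence of NADPH, with aliquots taken at 0, 15, 30, 45 and 60 min. Parent remaining was quantified by LC-MS/MS. k was taken from the slope of ln(% remaining) versus time, and t1/2 = −0.693/k.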

Data set [3] is described as follows: Pharmacokinetic assay in rat (IV 3 mg/kg, PO 10 mg/kg). In kind it is in vivo. The settings on record: male, Sprague-Dawley, plasma, read-out: Rat F (%). An excerpt:
(§2) Pharmacokinetic Assays in Mouse and Rat
(§3) The following are assays that may be used to evaluate the pharmacokinetic properties of Formula (I) in mouse or rat. The assays follow a common procedure recited below.
(§4) 1. […] For PO (oral gavage), DMSO/PEG400 (10:90). Formulations freshly prepared on the day of dosing or prior to dosing. Storage at room temperature.
(§5) 2. Test Species: For Mouse: Male CD1 strain, approximately 6-8 weeks in age, approximately 20-30 g. For Rat: Male Sprague-Dawley strain, approximately 6-8 weeks in age, approximately 200-300 g.
(§6) 3. Dose Level: For IV, 3 mg/kg. For PO, 10 mg/kg.
(§7) 4. Number of animals: 3 per assay.
(§8) 5. PK time points: For IV (plasma): 5 min, 15 min, 1, 2, 4, 6, 8, 24 h post dose. For PO (plasma): 15 min, 30 min, 1, 2, 4, 6, 8, 24 h post dose.
(§9) 6. Blood Sample Collection and Processing. Blood was collected (˜0.2 mL per time point) from jugular vein. Blood of each sample was transferred into plastic micro centrifuge tubes containing anticoagulant of EDTA-K2. Blood samples were centrifuged at 2,000 g for 5 minutes at 4° C. to obtain plasma.
(§10) 7. Samples Analysis: Plasma samples were analyzed using LC/MS/MS method, and pharmacokinetic parameters (half-life: t1/2; oral bioavailability: F; volume of distribution: Vss).

Data set [4] deals with MCT1 (Homo sapiens (Human), UniProt P53985). Description: Assay 4: MCT1-mediated lactate transport in BT20 breast cancer cells. In kind it is cell-based. As to the method: (§11) Preparing BCECF-Loaded Cells
(§12) 10 µL of a 30 mM DMSO stock of BCECF-AM ester (Life Technologies) is added and the cells are incubated at 37° C. for 5 min. The cells are pelleted (300 g, 5 min), washed once with 1 mL Tyrode's Solution, pH 7.4, re-pelleted (300 g, 5 min), and resuspended in 1 mL Tyrode's Solution, pH 7.4.
Assay 4: MCT1-Mediated Lactate Transport in BT20 Breast Cancer Cells.
Preparation of BCECF loaded cells are as described for Assay 1. Lactate transport assay is as described for Assay 1, except 10 mM L-lactate (rather than 50 mM) is added.

Data set [5] in a line: Pharmacokinetic assay in mouse (IV 3 mg/kg, PO 10 mg/kg). The following applies: male, CD1, mouse, plasma, read-out: Mouse F (%). In kind it is in vivo.
From the text: as §2, §3, §4, §5, §6, §7, §8, §9, §10

The subject of data set [6] is CFA-induced arthritis. As to the kind of experiment: Adjuvant-induced arthritis model in rat: Mechanical Allodynia test (MA). In kind it is in vivo. The settings on record: SD rat, PO 3 days post CFA, compared to dexamethasone.
The nature of data set [7]: Metabolic stability in mouse liver microsomes (in vitro t1/2). In kind it is in vitro ADME. The following applies: mouse liver microsomes 0.5 mg/mL, 2 μM compound; for Mouse microsome % 60 min: % remaining at 60 min; for Mouse microsome t1/2, min: in vitro t1/2. Summed up:
as §1
For orientation: Liver microsomes are vesicles of endoplasmic reticulum, rich in cytochrome P450 enzymes.

Data set [8] can be described thus: Metabolic stability in rat liver microsomes (in vitro t1/2). The settings on record: rat liver microsomes 0.5 mg/mL, 2 μM compound; for Rat microsome % 60 min: % remaining at 60 min. Format: in vitro ADME. The method, boiled down: as §1
For data set [9], the target named is MCT4 (Homo sapiens (Human), UniProt O15427). Description: Assay 3: MCT4-mediated lactate transport in MDA-MB-231 breast cancer cells. The settings on record: MDA-MB-231 cells. Format: cell-based. As to the method:
as §11, §12
MCT4 activity may be assessed by monitoring the intracellular pH change that accompanies lactate/proton symport, using the pH-sensitive fluorescent dye 2′,7′-bis-(carboxyethyl)-5(6)-carboxyfluorescein (BCECF), in a manner similar to that previously reported for MCT1 and MCT4. The following is an exemplary procedure for assaying MCT4 activity of the compounds of Formula (I).

Chain of MCT1 (P53985 whole entry): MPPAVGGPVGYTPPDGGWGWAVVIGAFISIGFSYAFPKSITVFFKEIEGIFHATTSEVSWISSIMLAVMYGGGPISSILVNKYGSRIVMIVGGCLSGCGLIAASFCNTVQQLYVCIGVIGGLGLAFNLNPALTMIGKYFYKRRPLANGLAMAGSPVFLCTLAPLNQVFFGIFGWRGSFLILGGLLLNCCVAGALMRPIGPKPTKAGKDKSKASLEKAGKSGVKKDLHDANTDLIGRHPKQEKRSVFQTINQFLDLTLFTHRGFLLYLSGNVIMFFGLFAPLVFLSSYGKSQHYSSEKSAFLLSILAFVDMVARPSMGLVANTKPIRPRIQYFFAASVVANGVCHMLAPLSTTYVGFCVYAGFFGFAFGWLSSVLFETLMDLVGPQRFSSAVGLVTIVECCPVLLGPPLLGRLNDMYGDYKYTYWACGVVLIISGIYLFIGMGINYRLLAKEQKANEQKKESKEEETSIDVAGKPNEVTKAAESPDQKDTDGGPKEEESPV
Chain of MCT1 (P35613 140-385 partner): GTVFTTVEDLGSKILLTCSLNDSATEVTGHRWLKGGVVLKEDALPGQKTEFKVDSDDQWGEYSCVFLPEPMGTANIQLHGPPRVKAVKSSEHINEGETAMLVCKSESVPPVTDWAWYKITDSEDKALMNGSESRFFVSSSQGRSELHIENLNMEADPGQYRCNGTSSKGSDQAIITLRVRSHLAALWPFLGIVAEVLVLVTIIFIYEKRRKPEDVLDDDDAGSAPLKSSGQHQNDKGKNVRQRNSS
Chain of MCT4 (O15427 whole entry, looked up): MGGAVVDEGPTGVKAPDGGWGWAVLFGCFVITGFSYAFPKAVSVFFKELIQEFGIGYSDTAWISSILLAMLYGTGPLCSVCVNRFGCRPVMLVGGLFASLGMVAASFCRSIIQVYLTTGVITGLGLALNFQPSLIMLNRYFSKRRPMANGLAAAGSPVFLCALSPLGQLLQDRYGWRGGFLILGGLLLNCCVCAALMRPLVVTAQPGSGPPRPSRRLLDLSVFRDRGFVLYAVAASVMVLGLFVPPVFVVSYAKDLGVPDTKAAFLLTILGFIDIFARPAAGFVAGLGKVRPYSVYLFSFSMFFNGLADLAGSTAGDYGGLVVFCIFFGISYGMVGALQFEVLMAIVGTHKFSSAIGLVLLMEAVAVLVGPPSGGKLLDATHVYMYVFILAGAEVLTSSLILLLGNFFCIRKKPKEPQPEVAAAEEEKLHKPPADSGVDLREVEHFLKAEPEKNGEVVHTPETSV
Chain of MCT4 (P35613 whole entry partner, looked up): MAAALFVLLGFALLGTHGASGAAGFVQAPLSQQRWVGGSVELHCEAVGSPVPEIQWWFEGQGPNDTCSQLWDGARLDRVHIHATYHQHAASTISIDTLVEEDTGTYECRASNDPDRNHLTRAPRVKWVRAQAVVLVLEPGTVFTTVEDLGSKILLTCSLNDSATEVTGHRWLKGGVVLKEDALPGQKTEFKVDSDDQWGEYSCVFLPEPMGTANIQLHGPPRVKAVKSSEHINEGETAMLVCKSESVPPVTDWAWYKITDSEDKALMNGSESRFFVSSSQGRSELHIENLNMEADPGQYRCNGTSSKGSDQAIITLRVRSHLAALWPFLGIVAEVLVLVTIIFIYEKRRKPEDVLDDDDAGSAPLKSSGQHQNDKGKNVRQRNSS

As for `COc1cccc(-c2cc(COC(C)(C)C(=O)O)nn2Cc2ccccc2Cl)c1` [Example 14, 2-([1-[(2-Chlorophenyl)methyl]-5-(3-methoxyphenyl)1H-pyrazol-3-yl]methoxy)-2-methylpropanoic acid], the “Difference in Weight Bearing, Minimal Efficacious Dose” value (“Difference in Weight Bearing” for short) in data set [1] was 30 mg/kg. The “Human microsome % 60 min” value in [2] turned out to be 82%. The bioavailability was found to be 64% in [3] and 100% in data set [5]. Also, the IC50 in [4] (lactate transport (Table 26)) and in data set [4] (lactate transport (Table 27)) was over 100000 nM each time. Moreover, the “Mechanical Allodynia (Von Frey), Minimal Efficacious Dose” value (“Mechanical Allodynia (Von Frey)” below) in [6] is 30 mg/kg. The “Mouse microsome % 60 min” value in data set [7] is on record as 95%.

For the molecule `CC(C)(OCc1cc(-c2cccc(OC3CC3)c2)n(-c2ccccc2Cl)n1)C(=O)O` [Example 110, 2-([1-(2-Chlorophenyl)-5-(3-cyclo-propoxyphenyl)-1H-pyrazol-3-yl]methoxy)-2-methylpropanoic acid], the “Difference in Weight Bearing” value in data set [1] was found to be 10 mg/kg. The “Human microsome % 60 min” value in [2] amounted to 99%. Further, the bioavailability in data set [3] was 84%; in data set [5], 100%. For the same molecule, the “Mechanical Allodynia (Von Frey)” value in data set [6] came to 10 mg/kg. For the same molecule, the “Mouse microsome % 60 min” value in data set [7] is recorded as 86%. Further, the “Rat microsome % 60 min” value in [8] came to 94%.

In the case of `CC(C)(OCc1cc(-c2cc(OC3CC3)cs2)n(Cc2ccccc2Cl)n1)C(=O)O` [Example 130, 2-([1-[(2-Chlorophenyl)methyl]-5-(4-cyclopropoxythien-2-yl)-1H-pyrazol-3-yl]methoxy)-2-methylpropanoic acid], the results for the IC50 in data set [9] and in data set [4] (lactate transport (Table 27)) were 98 nM and 55 nM, respectively.

For `CCn1ncc2ccc(-c3cc(COC(C)(C)C(=O)O)nn3Cc3ccccc3Cl)cc21` [Example 150, 2-([1-[(2-Chlorophenyl)methyl]-5-(1-ethyl-1H-indazol-6-yl)-1H-pyrazol-3-yl]-methoxy)-2-methylpropanoic Acid], in data set [1], the “Difference in Weight Bearing” value is 10 mg/kg. Besides, the “Human microsome % 60 min” value in data set [2] is 90%. The results for the bioavailability in data set [3] and in data set [5] were 43% and 89%, respectively. Also, the “Mechanical Allodynia (Von Frey)” value in data set [6] is 10 mg/kg. Also, the “Mouse microsome t1/2, min” value in data set [7] is given as “∞”. In addition, the “Rat microsome % 60 min” value in data set [8] amounted to 98%.

Turning to `CC(C)COc1cccc(-c2cc(COC(C)(C)C(=O)O)nn2-c2cccc3cnn(C)c23)c1` [Example 170, 2-methyl-2-([1-(1-methyl-1H-indazol-7-yl)-5-[3-(2-methylpropoxy)phenyl]-1H-pyrazol-3-yl]methoxy]propanoic acid], the “Difference in Weight Bearing” value in data set [1] is 3 mg/kg. In addition, the “Human microsome % 60 min” value in [2] is 87%. Also, the values for the bioavailability in [3] and in [5] were 18% and 100%, respectively. Besides, the “Mechanical Allodynia (Von Frey)” value in [6] turned out to be 3 mg/kg. In [7], the “Mouse microsome % 60 min” value worked out at 99%. In data set [7], the “Mouse microsome t1/2, min” value is “∞”. Further, the “Rat microsome % 60 min” value in data set [8] is 95%. Also, the “Rat microsome t1/2, min” value in data set [8] (in vitro t1/2) is reported as “∞”.

Consider `CCn1ncc2ccc(-c3cc(CO[C@](C)(CC)C(=O)O)nn3Cc3ccccc3Cl)cc21` [Example 220, (2R)-2-([1-[(2-chlorophenyl)methyl]-5-(1-ethyl-1H-indazol-6-yl)-1H-pyrazol-3-yl]methoxy)-2-methylbutanoic acid], for which the “Difference in Weight Bearing” value in data set [1] was 3 mg/kg. Also, in data set [2] (in vitro t1/2), the “Human microsome t1/2, min” value is reported as “∞”. Besides, the bioavailability in data set [3] was found to be 29%; in data set [5], 100%. In addition, the “Mechanical Allodynia (Von Frey)” value in data set [6] worked out at 3 mg/kg. Besides, the “Rat microsome % 60 min” value in data set [8] came to 86%.

With `CCn1ncc2ccc(-c3cc(COC(C)(C)C(=O)O)nn3-c3ccccc3N3CCCC3)cc21` [Example 229, 2-([5-(1-ethyl-1H-indazol-6-yl)-1-[2-(pyrrolidin-1-yl)phenyl]-1H-pyrazol-3-yl]methoxy)-2-methylpropanoic acid], in data set [1], the “Difference in Weight Bearing” value was 3 mg/kg. The “Human microsome % 60 min” value in [2] came to 64%. Further, the bioavailability in data set [3] and in data set [5] was 100% throughout. Also, the “Mechanical Allodynia (Von Frey)” value in [6] is given as 3 mg/kg. Besides, the “Mouse microsome % 60 min” value in [7] stood at 81%. In addition, the “Rat microsome % 60 min” value in [8] is reported as 69%.

With `CC(C)(OCc1cc(-c2cccc(OC3CC3)c2)n(-c2ccccc2N2CCC2)n1)C(=O)O` [Example 232, 2-([1-[2-(Azetidin-1-yl)phenyl]-5-(3-cyclopropoxyphenyl)-1H-pyrazol-3-yl]-methoxy)-2-methylpropanoic acid], in data set [1], the “Difference in Weight Bearing” value turned out to be 1 mg/kg. For the same molecule, in data set [2], the “Human microsome % 60 min” value is recorded as 65%. For the same molecule, the bioavailability in [3] was 52%; in [5] it was 56%. Besides, the “Mechanical Allodynia (Von Frey)” value in [6] stood at 1 mg/kg. Besides, the “Mouse microsome % 60 min” value in data set [7] worked out at 59%. Also, the “Rat microsome % 60 min” value in data set [8] amounted to 50%.

Take `CCCn1ncc2ccc(-c3cc(COC(C)(C)C(=O)O)nn3-c3ccccc3N3CCCC3)cc21` [Example 250, 2-Methyl-2-([5-(1-propyl-1H-indazol-6-yl)-1-[2-(pyrrolidin-1-yl)phenyl]-1H-pyrazol-3-yl]methoxy]propanoic acid]: the IC50 in data set [9] is 1.3 nM; in [4] (lactate transport (Table 27)) it was 41000 nM.

For `CC[C@@](C)(OCc1cc(-c2cccc(OC3CC3)c2)n(-c2ccccc2N2CCC2)n1)C(=O)O` [Example 266], the “Difference in Weight Bearing” value in data set [1] is given as 3 mg/kg. Further, the bioavailability in data set [3] and in data set [5] was 100% in each case. In data set [6], the “Mechanical Allodynia (Von Frey)” value was 3 mg/kg.

For the molecule `CCCn1ncc2ccc(-c3cc(CO[C@](C)(CC)C(=O)O)nn3-c3ccccc3N3CCC3)cc21` [Example 267, (2R)-2-([1-[2-(azetidin-1-yl)phenyl]-5-(1-propyl-1H-indazol-6-yl)-1H-pyrazol-3-yl]methoxy)-2-methylbutanoic acid], the “Difference in Weight Bearing” value in data set [1] is 3 mg/kg. The bioavailability in data set [3] amounted to 54%; in data set [5], 64%. For the same molecule, the “Mechanical Allodynia (Von Frey)” value in [6] is reported as 3 mg/kg.

With `CCn1ncc2ccc(-c3cc(CO[C@](C)(CC)C(=O)O)nn3-c3ccccc3N3CCCC3)cc21` [Example 268, (2R)-2-([5-(1-ethyl-1H-indazol-6-yl)-1-[2-(pyrrolidin-1-yl)phenyl]-1H-pyrazol-3-yl]methoxy)-2-methylbutanoic acid], the “Difference in Weight Bearing” value in [1] was 1 mg/kg. Also, the bioavailability worked out at 57% in data set [3] and 77% in [5]. Moreover, the “Mechanical Allodynia (Von Frey)” value in data set [6] is 1 mg/kg.

For orientation: IC50 means the concentration that gives 50% inhibition. Low values mean higher potency, high ones lower potency.
